Experiment [1] concerns the target T1, Pol theta polymerase domain (residues 1819-2590) (Homo sapiens, UniProt O75417).
T1 construct: Pol theta polymerase domain (residues 1819-2590) at a final concentration of 4 nM
T1 sequence (O75417 1819-2590): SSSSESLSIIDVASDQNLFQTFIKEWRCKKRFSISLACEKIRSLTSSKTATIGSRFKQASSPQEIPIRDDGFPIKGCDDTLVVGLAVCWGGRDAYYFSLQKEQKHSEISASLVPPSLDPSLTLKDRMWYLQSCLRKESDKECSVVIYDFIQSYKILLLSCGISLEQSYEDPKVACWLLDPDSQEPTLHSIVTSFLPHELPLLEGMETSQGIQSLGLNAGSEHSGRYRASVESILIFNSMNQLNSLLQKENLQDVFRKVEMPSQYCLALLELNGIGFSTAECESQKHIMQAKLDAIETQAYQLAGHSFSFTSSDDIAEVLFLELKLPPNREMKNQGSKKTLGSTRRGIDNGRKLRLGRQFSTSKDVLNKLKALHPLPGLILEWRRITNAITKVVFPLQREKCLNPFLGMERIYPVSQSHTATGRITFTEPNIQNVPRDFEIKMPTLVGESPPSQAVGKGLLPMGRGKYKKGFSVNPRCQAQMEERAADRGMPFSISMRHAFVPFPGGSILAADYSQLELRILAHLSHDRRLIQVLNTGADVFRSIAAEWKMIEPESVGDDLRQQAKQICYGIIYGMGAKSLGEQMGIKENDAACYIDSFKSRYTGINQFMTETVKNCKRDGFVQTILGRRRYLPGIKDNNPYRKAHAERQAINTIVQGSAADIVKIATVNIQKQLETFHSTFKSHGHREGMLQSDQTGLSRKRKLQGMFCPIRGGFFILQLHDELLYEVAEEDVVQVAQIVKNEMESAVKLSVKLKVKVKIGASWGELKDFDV
Description: Primer extension assay (inhibition of polymerase activity of Pol theta, molecular beacon fluorescence). The class given is biochemical. As to conditions: Pol theta polymerase domain 4 nM; fluorescence change over 30 min. Here is the method: The ability of the compounds of Formula (I) or Formula (II) to inhibit polymerase activity of Pol theta was determined using the primer extension assay as set forth below.
A mixture of 20 uL of Pol theta polymerase domain (residues 1819-2590) at a final concentration of 4 nM in assay buffer (20 m M TRIS, pH 7.80, 50 mM KCl, 10 mM MgCl2, 1 mM DTT, 0.01% BSA, 0.01% Tween20) was added to test compounds (11-point dilution series of test compounds) except the low control wells without test compounds. The above enzyme and test compound inhibitor mixture was then incubated at room temperature for 15 min. An equal volume (20 μl) of dNTP substrate mixture (48 μM) and primed molecular beacon DNA (obtained by annealing template SEQ ID NO:2: (5′-CCTTCCTCCCGTGTCTTG-TACCTTCCCGTCA-GGAGGAAGG-3′) with 5′-TAMRA and 3′-BHQ and primer DNA (SEQ ID NO:3; 5′-GACGGGAAGG-3′) in 10 mM Tris-HCl pH 8.0, 100 mM NaCl buffer) (96 nM) in assay buffer was added to all the test wells. The inhibition activity was measured by monitoring the fluorescence change over 30 min at 535 nm upon excitation at 485 nm. The high control (DMSO with enzyme) with high fluorescence intensity represents no inhibition of polymerase reaction while the low control (DMSO with buffer) with low fluorescence intensity represents full inhibition of polymerase activity. Slope of the reaction progress curves were used to calculate the rate of polymerization. The rates were used to determine the percent inhibition using a four-parameter inhibition model to generate IC50, Hill slope and max inhibition.

The target of experiment [2] is T2, Pol theta (residues 1819-2590) (Homo sapiens, UniProt O75417).
T2 construct: Pol theta polymerase domain (residues 1819-2590) at a final concentration of 4 nM
T2 sequence (O75417 1819-2590): T1 sequence (O75417 1819-2590)
Description: PPi assay (inhibition of polymerase activity of Pol theta, PPiLite luminescence). As to conditions: Pol theta 2.8 nM; luminescence kinetic mode 90 min. It counts as biochemical. Here is the method: The ability of the compounds of Formula (I) or Formula (II) to inhibit polymerase activity of Pol theta was determined using the PPi assay as set forth below.
A mixture of template DNA strand (SEQ ID NO:4: 5′ ATTACTGACCTCATACTTCTGCCCTTCCATGTTCTGTGCCCTCCTTCC 3′) and primer DNA strand (SEQ ID NO:5: 5′ GGA AGG AGG GCA CAG AAC 3′) was annealed in 10 mM Tris-HCl pH 8.0, […] buffer to form the primed DNA substrate. A 10-point dilution series of compounds were used in a 384 well format for the inhibition assay. Pol theta (residues 1819-2590) (2.8 nM) in assay buffer (20 mM Tris-HCl pH 7.8, 50 mM KCl, 10 mM MgCl2, 1 mM DTT, 0.01% BSA, 0.01% Tween-20) was transferred to the test wells (10 uL), except for the low control wells. The plate was then incubated at room temperature for 15 mins. An equal volume (10 μL) of dNTP substrate (40 μM) and primed DNA substrate (800 nM) in assay buffer was added to all the test wells. 20 μL of PPi detection reagent (PPiLite inorganic pyrophosphate assay, Lonzo) was then added to all test wells. The plate was then centrifuged at 1000 rpm for 1 min. The reaction was monitored in a Tecan M1000 Pro plate reader in luminescence kinetic mode for 90 min. The high control (DMSO with enzyme) with high luminescence represents no inhibition of the polymerase reaction while the low control (DMSO with buffer) with low luminescence represents full inhibition of the polymerase activity. Slope of the reaction progress curves were used to calculate the rate of polymerization. The rates were used to determine the percent inhibition using a four-parameter inhibition model to generate IC50, Hill slope, maximum inhibition, and minimum inhibition.

One may read the IC50 as the concentration that gives 50% inhibition. Low values mean higher potency, high ones lower potency. Consider `CN(C(=O)C1CCCN1c1cc(C(F)(F)F)cc(C(F)(F)F)n1)c1ccc(F)cc1` (centres unmarked) [1.001, 1-(4,6-bis(trifluoromethyl)pyridin-2-yl)-N-(4-fluorophenyl)-N-methylpyrrolidine-2-carboxamide], for which the IC50 in experiment [1] was ≤ 200 nM.
Same read-out and setting: then `CN(C(=O)C1CCCN1c1ccccc1)c1ccccc1` (centres unmarked) [1.004, N-methyl-N,1-diphenylpyrrolidine-2-carboxamide], with 1000 to 10000 nM.
Still for that read-out and setting: then `CN(C(=O)C1CCN1c1cc(C(F)(F)F)cc(C(F)(F)F)n1)c1ccc(F)cc1` (centres unmarked) [1.005, 1-(4,6-bis(trifluoromethyl)pyridin-2-yl)-N-(4-fluorophenyl)-N-methylazetidine-2-carboxamide], with ≤ 200 nM; and `CN(C(=O)C1CCCCN1c1cc(C(F)(F)F)cc(C(F)(F)F)n1)c1ccc(F)cc1` (centres unmarked) [1.007, 1-(4,6-bis(trifluoromethyl)pyridin-2-yl)-N-(4-fluorophenyl)-N-methylpiperidine-2-carboxamide], with ≤ 200 nM.
On the same count and under the same terms, with `Fc1ccc(-c2cccnc2C2CCCN2c2cc(C(F)(F)F)cc(C(F)(F)F)n2)cc1` (centres unmarked) [1.008, 2-(2-(3-(4-fluorophenyl)pyridin-2-yl)pyrrolidin-1-yl)-4,6-bis(trifluoromethyl)pyridine] the figure was ≤ 200 nM; with `CN(C(=O)[C@@H]1CCCN1c1cc(C(F)(F)F)cc(C(F)(F)F)n1)c1ccc(Br)cc1` [1.009, (S)-1-(4,6-bis(trifluoromethyl)pyridin-2-yl)-N-(4-bromophenyl)-N-methylpyrrolidine-2-carboxamide], ≤ 200 nM.
As for `CN(C(=O)[C@@H]1CCCN1c1cc(C(F)(F)F)cc(C(F)(F)F)n1)c1ccc2occc2c1` [1.010, (S)-N-(benzofuran-5-yl)-1-(4,6-bis(trifluoromethyl)pyridin-2-yl)-N-methylpyrrolidine-2-carboxamide], the IC50 in experiment [1] is ≤ 200 nM.
On the same count and under the same terms, then `CN(C(=O)[C@@H]1CCCN1c1cc(C(F)(F)F)cc(C(F)(F)F)n1)c1ccncc1` [1.011, (S)-1-(4,6-bis(trifluoromethyl)pyridin-2-yl)-N-methyl-N-(pyridin-4-yl)pyrrolidine-2-carboxamide], with ≤ 200 nM; and `O=C([C@@H]1CCCN1c1cc(C(F)(F)F)cc(C(F)(F)F)n1)N(c1ccc(F)cc1)C1CC1` [1.012, (S)-1-(4,6-bis(trifluoromethyl)pyridin-2-yl)-N-cyclopropyl-N-(4-fluorophenyl)pyrrolidine-2-carboxamide], with ≤ 200 nM.
On the same count and under the same terms, then `CN(C(=O)[C@@H]1C[C@H](O)CN1c1cc(C(F)(F)F)cc(C(F)(F)F)n1)c1ccc(F)cc1` [1.013, (2S,4S)-1-(4,6-bis(trifluoromethyl)pyridin-2-yl)-N-(4-fluorophenyl)-4-hydroxy-N-methylpyrrolidine-2-carboxamide], with ≤ 200 nM.
Still for that read-out and setting: then `CN(C(=O)[C@@H]1CCCN1c1cc(C(F)(F)F)ccn1)c1ccc(F)cc1` [1.014, (S)-N-(4-fluorophenyl)-N-methyl-1-(4-(trifluoromethyl)pyridin-2-yl)pyrrolidine-2-carboxamide], with ≤ 200 nM; and `CN(C(=O)[C@@H]1CCCN1c1cccc(C(F)(F)F)n1)c1ccc(F)cc1` [1.015, (S)-N-(4-fluorophenyl)-N-methyl-1-(6-(trifluoromethyl)pyridin-2-yl)pyrrolidine-2-carboxamide], with ≤ 200 nM.
For the molecule `CN(C(=O)[C@@H]1C[C@@H](O)CN1c1cc(C(F)(F)F)cc(C(F)(F)F)n1)c1ccc(F)cc1` [1.016, (2S,4R)-1-(4,6-bis(trifluoromethyl)pyridin-2-yl)-N-(4-fluorophenyl)-4-hydroxy-N-methylpyrrolidine-2-carboxamide], the IC50 in experiment [1] is ≤ 200 nM.
As to `CN(C(=O)C1CCCN1c1nc(C(F)(F)F)cc(C(F)(F)F)n1)c1ccc(F)cc1` (centres unmarked) [1.017, 1-(4,6-bis(trifluoromethyl)pyrimidin-2-yl)-N-(4-fluorophenyl)-N-methylpyrrolidine-2-carboxamide], in experiment [1], the IC50 is ≤ 200 nM.
In the case of `CN(C(=O)[C@@H]1CCCN1c1cc(C(F)(F)F)cc(C(F)(F)F)n1)c1cccc(C#N)c1` [1.018, (S)-1-(4,6-bis(trifluoromethyl)pyridin-2-yl)-N-(3-cyanophenyl)-N-methylpyrrolidine-2-carboxamide], the IC50 in experiment [1] was ≤ 200 nM.
Turning to `C[C@H]1CC[C@@H](C(=O)N(C)c2ccc(F)cc2)N1c1cc(C(F)(F)F)cc(C(F)(F)F)n1` [1.021, (2S,5S)-1-(4,6-bis(trifluoromethyl)pyridin-2-yl)-N-(4-fluorophenyl)-N,5-dimethylpyrrolidine-2-carboxamide], in experiment [2], the IC50 is ≤ 200 nM.
`C[C@@H]1CC[C@@H](C(=O)N(C)c2ccc(F)cc2)N1c1cc(C(F)(F)F)cc(C(F)(F)F)n1` [1.023, (2S,5R)-1-(4,6-bis(trifluoromethyl)pyridin-2-yl)-N-(4-fluorophenyl)-N,5-dimethylpyrrolidine-2-carboxamide]: the half-inhibitory concentration (IC50) in experiment [2] was 500 to 1000 nM.
Still for that read-out and setting: with `CN(C(=O)[C@@H]1CCN1c1nc(C(F)(F)F)cc(C(F)(F)F)c1C#N)c1ccc(F)cc1` [1.025, (S)-1-(3-cyano-4,6-bis(trifluoromethyl)pyridin-2-yl)-N-(4-fluorophenyl)-N-methylazetidine-2-carboxamide] the figure was ≤ 200 nM; with `Fc1ccc(-c2cccnc2[C@@H]2CCCN2c2cc(C(F)(F)F)cc(C(F)(F)F)n2)cc1` [1.026, (S)-2-(2-(3-(4-fluorophenyl)pyridin-2-yl)pyrrolidin-1-yl)-4,6-bis(trifluoromethyl)pyridine], ≤ 200 nM.
Same read-out and setting: then `Fc1ccc(-c2cccnc2[C@H]2CCCN2c2cc(C(F)(F)F)cc(C(F)(F)F)n2)cc1` [1.027, (R)-2-(2-(3-(4-fluorophenyl)pyridin-2-yl)pyrrolidin-1-yl)-4,6-bis(trifluoromethyl)pyridine], with 1000 to 10000 nM; and `O=C([C@@H]1CCCN1c1cc(C(F)(F)F)cc(C(F)(F)F)n1)N(c1ccccc1)c1ccccc1` [1.028, (S)-1-(4,6-bis(trifluoromethyl)pyridin-2-yl)-N,N-diphenylpyrrolidine-2-carboxamide], with 1000 to 10000 nM.
The same measure, in the same setting: with `CN(C(=O)[C@@H]1[C@H](O)CCN1c1cc(C(F)(F)F)cc(C(F)(F)F)n1)c1ccc(F)cc1` [1.029, (2S,3R)-1-(4,6-bis(trifluoromethyl)pyridin-2-yl)-N-(4-fluorophenyl)-3-hydroxy-N-methylpyrrolidine-2-carboxamide] the figure was ≤ 200 nM.
`Cc1cc(C)nc(N2CCC[C@H]2C(=O)N(C)c2ccc(F)cc2)c1` [1.031, (S)-1-(4,6-dimethylpyridin-2-yl)-N-(4-fluorophenyl)-N-methylpyrrolidine-2-carboxamide] yielded an IC50 in experiment [1] of 200 to 500 nM.
